In the Kinase Knowledgebase extract (Sharma et al. 2016):

Molecular target: PIK3CG (human) (UniProt P48736)
Test: Assessment of PIK3CG Kinase Activity

Sequence of PIK3CG (human) (P48736 whole entry, looked up): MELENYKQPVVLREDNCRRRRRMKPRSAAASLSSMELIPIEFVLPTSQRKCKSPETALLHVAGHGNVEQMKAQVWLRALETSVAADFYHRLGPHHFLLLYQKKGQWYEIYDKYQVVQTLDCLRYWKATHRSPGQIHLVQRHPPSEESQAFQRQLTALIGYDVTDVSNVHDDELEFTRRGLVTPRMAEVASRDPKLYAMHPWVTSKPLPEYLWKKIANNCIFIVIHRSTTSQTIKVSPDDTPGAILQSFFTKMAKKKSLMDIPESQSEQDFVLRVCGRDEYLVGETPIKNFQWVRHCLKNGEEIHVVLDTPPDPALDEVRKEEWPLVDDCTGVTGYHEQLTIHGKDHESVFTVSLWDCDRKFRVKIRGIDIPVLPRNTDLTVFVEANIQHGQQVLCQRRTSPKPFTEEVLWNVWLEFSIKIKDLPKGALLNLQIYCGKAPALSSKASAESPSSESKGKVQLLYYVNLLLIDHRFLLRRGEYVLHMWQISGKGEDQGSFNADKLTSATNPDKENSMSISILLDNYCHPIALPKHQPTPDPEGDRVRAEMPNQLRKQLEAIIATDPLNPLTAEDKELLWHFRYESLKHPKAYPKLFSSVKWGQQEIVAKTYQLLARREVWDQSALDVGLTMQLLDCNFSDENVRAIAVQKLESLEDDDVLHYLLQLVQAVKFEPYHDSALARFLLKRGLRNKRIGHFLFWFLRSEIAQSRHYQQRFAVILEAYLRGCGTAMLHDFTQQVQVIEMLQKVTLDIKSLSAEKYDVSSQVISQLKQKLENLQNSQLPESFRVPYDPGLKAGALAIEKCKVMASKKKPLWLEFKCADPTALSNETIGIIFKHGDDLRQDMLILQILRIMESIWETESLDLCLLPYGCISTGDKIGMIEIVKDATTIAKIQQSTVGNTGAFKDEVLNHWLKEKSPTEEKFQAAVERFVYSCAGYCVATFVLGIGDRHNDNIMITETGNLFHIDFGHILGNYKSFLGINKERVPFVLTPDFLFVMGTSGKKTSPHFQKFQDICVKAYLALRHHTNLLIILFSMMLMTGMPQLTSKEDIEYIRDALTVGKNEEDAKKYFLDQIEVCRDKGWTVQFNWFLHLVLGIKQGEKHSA

SMILES: CCc1noc(CCNC(=O)Nc2nc3c(s2)-c2nc(-c4ccccc4Cl)ncc2CC3)n1
- IC50: < 800 nM

SMILES: CN(C)Cc1cccc(CNC(=O)Nc2nc3c(s2)-c2nc(-c4ccccc4Cl)ncc2CC3)c1
- IC50: < 800 nM

SMILES: CC(C)(C)CC(=O)N[C@@H]1CCN(C(=O)Nc2nc3c(s2)-c2nc(-c4ccccc4Cl)ncc2CC3)C1
- IC50: < 800 nM

SMILES: CC(=O)N[C@H]1CCN(C(=O)Nc2nc3c(s2)-c2nc(-c4ccccc4Cl)ncc2CC3)C1
- IC50: < 800 nM

SMILES: COc1cccc(CCNC(=O)Nc2nc3c(s2)-c2nc(-c4ccccc4Cl)ncc2CC3)c1OC
- IC50: < 800 nM

SMILES: CC(C)(C)OC(=O)NC1CCN(C(=O)Nc2nc3c(s2)-c2nc(-c4ccccc4Cl)ncc2CC3)C1 (stereo unspecified)
- IC50: < 800 nM

SMILES: CC(C)NC(=O)Nc1nc2c(s1)-c1nc(-c3cccc(F)c3Cl)ncc1CC2
- IC50: < 800 nM

SMILES: CCn1cc(CNC(=O)Nc2nc3c(s2)-c2nc(-c4cccc(F)c4Cl)ncc2CC3)cn1
- IC50: < 800 nM

SMILES: CC(=O)N[C@@H]1CCN(C(=O)Nc2nc3c(s2)-c2nc(-c4ccccc4Cl)ncc2CC3)C1
- IC50: < 800 nM

SMILES: CN(C)c1cccc(CNC(=O)Nc2nc3c(s2)-c2nc(-c4ccccc4Cl)ncc2CC3)c1
- IC50: < 800 nM

SMILES: CC(C)NC(=O)N[C@H]1CCN(C(=O)Nc2nc3c(s2)-c2nc(-c4ccccc4Cl)ncc2CC3)C1
- IC50: < 800 nM

SMILES: COC(=O)N[C@@H]1CCN(C(=O)Nc2nc3c(s2)-c2nc(-c4ccccc4Cl)ncc2CC3)C1
- IC50: < 800 nM

SMILES: O=C(O)CC1(CNC(=O)Nc2nc3c(s2)-c2nc(-c4ccccc4Cl)ncc2CC3)CCCCC1
- IC50: < 800 nM

SMILES: CCn1cnc(CCNC(=O)Nc2nc3c(s2)-c2nc(-c4ccccc4Cl)ncc2CC3)c1
- IC50: < 800 nM

SMILES: N#Cc1ccc(CNC(=O)Nc2nc3c(s2)-c2nc(-c4ccccc4Cl)ncc2CC3)s1
- IC50: < 800 nM

SMILES: CCc1csc(CCNC(=O)Nc2nc3c(s2)-c2nc(-c4ccccc4Cl)ncc2CC3)n1
- IC50: < 800 nM

SMILES: O=C(NCCc1ccccc1)Nc1nc2c(s1)-c1nc(-c3ccccc3Cl)ncc1CC2
- IC50: < 800 nM

SMILES: CN(C)C(=O)N[C@H]1CCN(C(=O)Nc2nc3c(s2)-c2nc(-c4ccccc4Cl)ncc2CC3)C1
- IC50: < 800 nM

SMILES: CC(C)(C)c1ncc2c(n1)-c1sc(NC(=O)NCc3cccc(N4CCNC4=O)c3)nc1CC2
- IC50: < 800 nM

SMILES: CN(C)C(=O)Nc1nc2c(s1)-c1nc(C(C)(C)C)ncc1CC2
- IC50: < 800 nM

SMILES: CN(C)CCNC(=O)Nc1nc2c(s1)-c1nc(-c3ccccc3Cl)ncc1CC2
- IC50: < 800 nM

SMILES: Cc1c[nH]c(CCNC(=O)Nc2nc3c(s2)-c2nc(-c4ccccc4Cl)ncc2CC3)n1
- IC50: < 800 nM

SMILES: O=C(NCc1cccc(N2CCOC2=O)c1)Nc1nc2c(s1)-c1nc(-c3ccccc3Cl)ncc1CC2
- IC50: < 800 nM

SMILES: Nc1c(Br)cc(OCC2CCN(C(=O)Nc3nc4c(s3)-c3nc(-c5ccccc5Cl)ncc3CC4)C2)cc1Br (stereo unspecified)
- IC50: < 800 nM

SMILES: CNC(=O)Nc1nc2c(s1)-c1nc(-c3ccccc3Cl)ncc1CC2
- IC50: < 800 nM

SMILES: O=C(NCc1cccc(C(=O)N2CCCC2)c1)Nc1nc2c(s1)-c1nc(-c3ccccc3Cl)ncc1CC2
- IC50: < 800 nM

SMILES: CN(C)S(=O)(=O)N[C@@H]1CCN(C(=O)Nc2nc3c(s2)-c2nc(-c4ccccc4Cl)ncc2CC3)C1
- IC50: < 800 nM

SMILES: CS(=O)(=O)N[C@@H]1CCN(C(=O)Nc2nc3c(s2)-c2nc(-c4ccccc4Cl)ncc2CC3)C1
- IC50: < 800 nM

SMILES: CC(C)CCNC(=O)Nc1nc2c(s1)-c1nc(-c3ccccc3Cl)ncc1CC2
- IC50: < 800 nM

SMILES: CC(C)COC(=O)N[C@H]1CCN(C(=O)Nc2nc3c(s2)-c2nc(-c4ccccc4Cl)ncc2CC3)C1
- IC50: < 800 nM

SMILES: CCn1ccc(CNC(=O)Nc2nc3c(s2)-c2nc(-c4ccccc4Cl)ncc2CC3)n1
- IC50: < 800 nM

SMILES: O=C(Nc1nc2c(s1)-c1nc(-c3ccccc3Cl)ncc1CC2)N1CCCC(C(O)c2ccccc2)C1 (stereo unspecified)
- IC50: < 800 nM

SMILES: O=C(Nc1nc2c(s1)-c1nc(-c3ccccc3Cl)ncc1CC2)NC1CCCCC1
- IC50: < 800 nM

SMILES: O=C(NCCN1CCOCC1)Nc1nc2c(s1)-c1nc(-c3ccccc3Cl)ncc1CC2
- IC50: < 800 nM

SMILES: Cn1cc(CNC(=O)Nc2nc3c(s2)-c2nc(-c4cccc(F)c4Cl)ncc2CC3)cn1
- IC50: < 800 nM

SMILES: O=C(NCCN1CCNC1=O)Nc1nc2c(s1)-c1nc(-c3ccccc3Cl)ncc1CC2
- IC50: < 800 nM

SMILES: CC(C)(C)OC(=O)N[C@H]1CC[C@H](CNC(=O)Nc2nc3c(s2)-c2nc(-c4ccccc4Cl)ncc2CC3)CC1
- IC50: < 800 nM

SMILES: CC(C)(C)OC(=O)N[C@@H]1CCN(C(=O)Nc2nc3c(s2)-c2nc(-c4ccccc4Cl)ncc2CC3)C1
- IC50: < 800 nM

SMILES: CC(C)c1cnc(CCNC(=O)Nc2nc3c(s2)-c2nc(-c4ccccc4Cl)ncc2CC3)o1
- IC50: < 800 nM

SMILES: CN(C)S(=O)(=O)N[C@H]1CCN(C(=O)Nc2nc3c(s2)-c2nc(-c4ccccc4Cl)ncc2CC3)C1
- IC50: < 800 nM

SMILES: CC(C)(C)OC(=O)N[C@H]1CCN(C(=O)Nc2nc3c(s2)-c2nc(-c4ccccc4Cl)ncc2CC3)C1
- IC50: < 800 nM

SMILES: CN(C)C(=O)CNC(=O)Nc1nc2c(s1)-c1nc(-c3ccccc3Cl)ncc1CC2
- IC50: < 800 nM

SMILES: Cn1cc(CNC(=O)Nc2nc3c(s2)-c2nc(-c4ccccc4C(F)(F)F)ncc2CC3)cn1
- IC50: < 800 nM

SMILES: CC(C)N(C)C(=O)Nc1cccc(CNC(=O)Nc2nc3c(s2)-c2nc(-c4ccccc4Cl)ncc2CC3)c1
- IC50: < 800 nM

SMILES: CCc1cnc(CCNC(=O)Nc2nc3c(s2)-c2nc(-c4ccccc4Cl)ncc2CC3)o1
- IC50: < 800 nM

SMILES: COc1cccc(CNC(=O)Nc2nc3c(s2)-c2nc(-c4ccccc4Cl)ncc2CC3)c1OC
- IC50: < 800 nM
